Results as given in patent US20240246968A1, “SMALL MOLECULE INHIBITORS OF KRAS G12C MUTANT” (Merck Sharp & Dohme LLC, priority 2021, published 2024).

Experiments:
[1] = molecular target: Gppcp-bound recombinant K-Ras4B G12C mutant protein (amino acids 1-169, C51S/C80L/C118S) (Homo sapiens, UniProt P01116, C118S/C51S/C80L/G12C); assay: KRASG12C binding assay (LC-MS, compound binding rate); conditions: test compound final concentration 0.5 μM, 25° C., 1 hour
Method: As test compounds for the KRASG12C binding assay, the compounds obtained in the “Preparation of Compounds” section were used. Sample solutions each containing a test compound were prepared in the form of a 10 mM DMSO solution.
Gppcp-bound recombinant K-Ras4B G12C mutant protein (amino acids 1-169, C51S/C80L/C118S, SEQ ID NO:1) was diluted with a buffer (1×TBS, 0.1 mM TCEP, 0.25 mM MgCl2, 50 μM Gppcp) to prepare a 50 nM protein solution. K-Ras4B is the major splicing variant of K-Ras. Amino acid sequence of residues 1 to 150 including the compounds' binding region of K-Ras4B is exactly same as that of K-Ras4A, the other splicing variant (Oncotarget. 2016 Jul. 19; 7(29): 46717-46733). A sample solution containing 10 mM test compound was diluted ten-fold with DMSO to make a 1 mM sample solution, and then diluted twenty-fold with DMSO to make a 50 μM sample solution. 1 μL of a 50 μM sample solution was added to 100 μL of a 50 nM protein solution to adjust the final concentration of a test compound to be 0.5 μM in the mixture. The mixtures were stored in an incubator at 25° C. for 1 hour, and 10 μL of a 1×TBS solution containing 2% formic acid was added to stop the reaction, followed by LC-MS measurement. LC-MS measurement was performed using Xevo G2-S Q-Tof manufactured by Waters, and reverse-phase chromatography was performed with a desalting column. A mass spectrum of positive ions was obtained by electrospray. For a mass spectrum, a spectrum of polyvalent ions was collectively converted to a molecular weight by using OpenLynx software by the MaxEnt technique, and a compound binding rate was calculated from the ratio of the signal intensity of a peak that corresponds to the molecular weight of the protein to the signal intensity of a peak that corresponds to the molecular weight of the protein conjugated with the compound.
The binding assay of the test compounds was conducted at a final concentration of 0.5 μM. A binding rate of 80% or more is rated “A”, a binding rate of 60% or more and less than 80% is rated “B”, a binding rate of 40% or more and less than 60% is rated “C”, a binding rate of 20% or more and less than 40% is rated “D”, and a binding rate of less than 20% is rated “E”. N.D.=not determined. Binding rate % is the ratio of KRAS signal intensity at the molecular weight of one molecule adduct to the sum of all the KRAS signal intensity (unbound form and adducts) in mass spectrum. Thus, binding rate 100% means that only the one molecule adduct was observed without any unbound KRAS. The following tables show the results.

[2] = test system: MIA PaCa-2 cells; assay: Growth inhibition activity on KRAS-G12C mutant cell line (MIA PaCa-2), CellTiter-Glo 3D; assay type: cell-based, human; conditions: Homo sapiens, MIA PaCa-2, 72 h, MIA PaCa-2, 3-day culture with compound
Method: MIA PaCa-2 cells (given by Sumitomo Dainippon Pharma Co., Ltd.), which are a KRAS-G12C mutant human pancreas cancer cell line, were suspended in a 10% fetal bovine serum-containing RPMI1640 medium (manufactured by Fujifilm Wako Pure Chemical Corporation.). The cell suspension was seeded into each well of a 384-well U bottom microplate and cultured in an incubator containing 5% CO2 gas at 37° C. for 1 day. The compounds obtained in the “Preparation of Compounds” section were used as test compounds and were dissolved in DMSO, respectively, and each test compound was diluted with DMSO to give a concentration 500 times the final concentration. The resultant solution of the test compound in DMSO was diluted with the medium used for suspending cells and added to each well of the cell-culture plate to give a DMSO final concentration of 0.2%, followed by culture in an incubator containing 5% CO2 gas at 37° C. for another 3 days. The cell count after 3-day culture in the presence of the test compound was measured using CellTiter-Glo 3D Reagent (manufactured by Promega Corporation). All wells were added with CellTiter-Glo 3D Reagent and mixed for 10 minutes. 30 minutes after mixing, luminescence was measured by a plate reader. The growth inhibition rate was calculated from the following equation, and the concentration of the test compound at which 50/o inhibition was achieved (IC50 (nM)) was determined. The following tables show the results.
[formula] • T: the emission intensity in a well into which a test compound was added. • C: the emission intensity in a well into which a test compound was not added.

[3] = molecular target: T1, interaction between recombinant K-Ras4B G12C mutant protein and cRAF RAS-binding domain (cRAF-RBD) (Homo sapiens, UniProt P01116, G12C); assay: Inhibitory activity on interaction between KRAS G12C and cRAF (Alpha technology); assay type: biochemical; conditions: GMPPNP-bound KRAS G12C incubated with compound at 25° C. for 1 hour, then cRAF-RBD; Alpha signal
T1 construct: made in house; host or cells: E. coli
Method: Interaction between recombinant K-Ras4B G12C mutant protein (amino acids 1-169, SEQ ID NO:2) and cRAF RAS-binding domain (cRAF-RBD, amino acids 50-132, Jena Biosciences GmbH) was measured using Alpha technology (PerkinElmer Inc.).
Recombinant KRAS G12C protein with an N-terminal His-tag was expressed in E. coli and purified by affinity chromatography. To prepare GTP-bound form and GDP-bound form of KRAS G12C protein. 50 μM KRAS G12C protein was incubated with 1 mM GMPPNP (Guanosine-5′-[(β,γ)-imido]triphosphate. Tetralithium salt)(Jena Bioscience GmbH) and 1 mM GDP, respectively, in a loading buffer (20 mM Tris-HCl (pH 7.5), 50 mM NaCl, 1 mM DTT and 2.5 mM EDTA) for 1 hour on ice. After the incubation, MgCl2 was added to a final concentration of 10 mM, followed by incubation at room temperature for 30 minutes. The mixture was allowed to pass through a NAP-5 column to remove free nucleotides and purified, and the resultant nucleotide-bound KRAS G12C protein was used for compound evaluation.
For the measurement of the inhibitory activity of compounds on interaction between KRAS G12C and cRAF-RBD, GMPPNP-bound KRAS G12C protein was incubated with various concentrations of compound in a reaction buffer (20 mM Tris-HCl (pH 7.5), 100 mM NaCl, 1 mM MgCl2, 1 mM TCEP. 0.1% Tween 20) at 25° C. for 1 hour. After the incubation, recombinant cRAF-RBD and Alpha detection reagents were added and incubated at room temperature for 1.5 hours for binding. Interaction of KRAS G12C and cRAF-RBD was monitored by measuring Alpha signal. Inhibition % was calculated using the signal from the reaction without test compound (DMSO control) as 0% inhibition and the signal from the reaction using GDP-bound KRAS G12C in place of GMPPNP-bound KRAS G12C as 100% inhibition. IC50 values were calculated from dose titration curve using curve fitting by XLfit software (IDBS). The following tables show the results.

SMILES | binding rate [1] | IC50 [2] | IC50 [3]
COc1c(-c2cccn3c(C(=O)c4cc(F)c(NC(=O)/C=C/CNC(C)(C)C)c(F)c4)ccc23)c(C(F)(F)F)cc2c1nc(C)n2C [Example 53, (E)-4-(tert-butylamino)-N-(2,6-difluoro-4-(8-(4-methoxy-1,2-dimethyl-6-(trifluoromethyl)-1H-benzo[d]imidazol-5-yl)indolizine-3-carbonyl)phenyl)but-2-enamide] | A (A binding rate of 80% or more is rated “A”) | 22 nM | 40 nM
COc1cc2c(cc1-c1cccn3c(C(=O)c4cc(F)c(NC(=O)/C=C/CN[C@H]5CC[C@H](OC)CC5)c(F)c4)ccc13)nc(C)n2C [Example 4, (E)-N-(2,6-difluoro-4-(8-(6-methoxy-1,2-dimethyl-1H-benzo[d]imidazol-5-yl)indolizine-3-carbonyl)phenyl)-4-(((1r,4r)-4-methoxycyclohexyl)amino)but-2-enamide] | A (A binding rate of 80% or more is rated “A”) | 42 nM | 74 nM
COCCn1c(C)nc2c(F)c(-c3cccn4c(C(=O)c5cc(F)c(NC(=O)/C=C/CNC6(C)CC6)c(F)c5)ccc34)c(OC)cc21 [Example 113, (E)-N-(2,6-difluoro-4-(8-(4-fluoro-6-methoxy-1-(2-methoxyethyl)-2-methyl-1H-benzo[d]imidazol-5-yl)indolizine-3-carbonyl)phenyl)-4-((1-methylcyclopropyl)amino)but-2-enamide] | A (A binding rate of 80% or more is rated “A”) | 55.9 nM | 44.9 nM
Cc1nc2cc(-c3cccn4c(C(=O)c5cc(F)c(NC(=O)/C=C/CNC6(CO)CCOCC6)c(F)c5)ccc34)c(C(F)(F)F)cc2n1C [Example 70, (E)-N-(4-(8-(1,2-dimethyl-6-(trifluoromethyl)-1H-benzo[d]imidazol-5-yl)indolizine-3-carbonyl)-2,6-difluorophenyl)-4-((4-(hydroxymethyl)tetrahydro-2H-pyran-4-yl)amino)but-2-enamide] | A (A binding rate of 80% or more is rated “A”) | 210 nM | 70 nM
Cc1cc2c(nc(CC(F)(F)F)n2C)c(Cl)c1-c1cccn2c(C(=O)c3cc(F)c(NC(=O)/C=C/CNC(C)(C)C)c(F)c3)ccc12 [Example 82, (E)-4-(tert-butylamino)-N-(4-(8-(4-chloro-1,6-dimethyl-2-(2,2,2-trifluoroethyl)-1H-benzo[d]imidazol-5-yl)indolizine-3-carbonyl)-2,6-difluorophenyl)but-2-enamide] | A (A binding rate of 80% or more is rated “A”) | 260 nM | 96 nM
Cc1nc2cc(-c3cccn4c(C(=O)c5cc(F)c(NC(=O)/C=C/CN[C@@H]6CCOC6)c(F)c5)ccc34)c(C(F)(F)F)cc2n1C [Example 91] | A (A binding rate of 80% or more is rated “A”) | 100 nM | 75 nM
CO[C@H]1CC[C@H](NC/C=C/C(=O)Nc2c(F)cc(C(=O)c3cc(-c4cnn(C)c4)c4c(-c5c(C)cc6c(nc(C)n6C)c5Cl)cccn34)cc2F)CC1 [Example 101, (E)-N-(4-(8-(4-chloro-1,2,6-trimethyl-1H-benzo[d]imidazol-5-yl)-1-(1-methyl-1H-pyrazol-4-yl)indolizine-3-carbonyl)-2,6-difluorophenyl)-4-(((1r,4r)-4-methoxycyclohexyl)amino)but-2-enamide] | A (A binding rate of 80% or more is rated “A”) | 93 nM | 54 nM
Cc1nc2cc(-c3cccn4c(C(=O)c5cc(F)c(NC(=O)/C=C/CNC(C)(C)C)c(F)c5)ccc34)c(C(F)(F)F)cc2n1C [Example 25, (E)-4-(tert-butylamino)-N-(4-(8-(1,2-dimethyl-6-(trifluoromethyl)-1H-benzo[d]imidazol-5-yl)indolizine-3-carbonyl)-2,6-difluorophenyl)but-2-enamide] | A (A binding rate of 80% or more is rated “A”) | 100 nM | 79 nM
